# Where “and” joins values, the source holds several entries; their conditions need not be identical. Equal entries are not always repeated.
# Columns and labels:
# [1] = tested on: epithelial injuries in the upper digestive tracts such as the stomach and the duodenum; details: dose of about 2 g a day; Non-patent Literatures 8 and 9; cited from earlier work
# [2] = tested on: patients with ulcerative colitis; assay: Example 1: 2 g L-glutamine enema, frequencies of bowel movements and diarrhea, blood feces scores; type: in vivo, humans; set-up: key to Blood feces score, Aft. admin.: blood feces score averaged per day: 0 = none, 1 = less, 3 = a lot
# Procedure: Further, 60 mL of an enema agent prepared by adding 2 g of L-glutamine to sterilized water was administered via the large intestinal route to the patients with ulcerative colitis having the same symptoms as mentioned above (Case Nos. 5 and 9 to 14).
# In addition, the patients with ulcerative colitis of Comparative Example and Example take a 5-ASA agent(s) (“Pentasas” or “Salazopyrin®”) as an oral agent conforming to dosage and administration.
# The frequencies of bowel movements and diarrhea, and blood feces scores were measured of these patients.
# [3] = tested on: DSS model in mice (ulcerative colitis developed by 5% DSS water); assay: Drug efficacy test by enema administration of glutamine on DSS model in mice; type: in vivo, mouse; details: sixth day after start of drinking DSS water, FIG. 1
# Procedure: 5% DSS water (dissolving dextran sulfate sodium in tap water) was drank ad lib by a male C57BL/6 Cr Slc mouse of 8 weeks old, and it developed ulcerative colitis. From one day before starting drinking of DSS water, L-glutamine was administered via the large intestinal route to the mouse once a day. An enema agent (solution) having the composition of 0.5% (w/v) carboxymethylcellulose—sodium was used as the enema agent. As the disease activity index, each average value of body weight scores, blood feces scores and diarrhea scores was calculated referring to the report of HS. Cooper et al. (Laboratory Investigation 1993; 69(2): 238).
# rat models of TNBS = details: 0.25 to 0.4 g/kg via the large intestinal route; Non-patent Literatures 13 and 14; cited from earlier work
# [4] = tested on: patients with ulcerative colitis; assay: Comparative Example 1: 10 g L-glutamine via the large intestinal route, frequencies of bowel movements and diarrhea; type: in vivo, humans
# Procedure: 10 g of L-glutamine was added to 60 mL of “Predonema®” Enema, and the mixture was administered via the large intestinal route to patients with ulcerative colitis. The frequencies of bowel movements and diarrhea were measured. […] Meanwhile, the patients were treated with “Predonema®” from Day 1 to Day 14, and 60 mL of “Predonema®” Enema prepared by adding 10 g of L-glutamine thereto was administered via the large intestinal route to the patients from Day 15 to Day 28.
# [5] = 2 g L-glutamine enema, with or without Predonema
# [6] = 2 g L-glutamine enema, oral 5-ASA agent
structure (smiles),measurement,setting,value
"NC(=O)CC[C@H](N)C(=O)O [Gln, L-glutamine]",effectiveness against epithelial injuries in the upper digestive tracts,[1],effective
same,frequency of bowel movements (summary of Table 1),[2]; [5],maintained the frequency of bowel movements
same,improvement in blood feces (summary of Table 1),[2]; [5],improvement in blood feces was recognized in all cases
same,diarrhea (summary of Table 1),"[2]; 2 g L-glutamine enema, as shown in Case Nos. 4 and 5",able to improve diarrhea
same,cases in which the blood feces improved,[2]; [6],3 out of 7
same,improvement rate (blood feces),[2]; [6],43%
same,"Blood feces score, Aft. admin.","[2]; 2 g L-glutamine in 60 mL enema, admin. period 14-39 per case, oral 5-ASA agent, single patient, average per day, no blood feces: 0, less: 1, a lot: 3",1.3 and 1.0 (2×) and 0.8 and 0.9
same,"Freq. of bowel movement, Aft. admin.","[2]; 2 g L-glutamine in 60 mL enema, large intestinal route, admin. period 14-39 per case, all with oral 5-ASA agent, single patient",5.0 per a day and 5.3 per a day and 2.3 per a day and 13.9 per a day and 14.1 per a day
same,"freq. of diarrhea, Aft. admin.","[2]; 2 g L-glutamine in 60 mL enema, large intestinal route, admin. period 14-39 per case, all with oral 5-ASA agent, single patient, number in ( )",0.1 per a day and 0.4 per a day and 0.0 per a day (2×) and 2.6 per a day
same,course of administration (stopped for aggravation of symptoms after starting administration),"[2]; 2 g L-glutamine in 60 mL sterilized water enema, oral 5-ASA agent, single patient",Stopped for aggravation
same,"Freq. of bowel movement, Bef. admin.","[2]; baseline before administration, single patient (Case No.), average value per day of the period",4.5 per a day and 5.4 per a day and 2.5 per a day and 4.2 per a day and 6.7 per a day
same,"freq. of diarrhea, Bef. admin.","[2]; baseline before administration, single patient (Case No.), number in ( )",2.0 per a day and 0.9 per a day and 0.0 per a day (2×) and 1.5 per a day
same,"Blood feces score, Bef. admin.","[2]; baseline before administration, single patient, average per day, no blood feces: 0, less: 1, a lot: 3",2.2 and 1.3 (2×) and 0.8 and 1.0
same,"disease activity index (average of body weight, blood feces and diarrhea scores) versus vehicle-treated group",[3]; 30 mg/kg once a day via the large intestinal route,no significant difference
same,"disease activity index (average of body weight, blood feces and diarrhea scores) versus vehicle-treated group",[3]; 100 mg/kg once a day via the large intestinal route,no significant difference
same,effectiveness in animal enteritis models,rat models of TNBS,effective
same,frequency of bowel movements,"[4]; 10 g L-glutamine added to 60 mL Predonema Enema, Day 15 to Day 28, after Predonema alone Day 1 to Day 14, oral 5-ASA agent, FIG. 2",increased
same,blood feces (observation of feces),"[4]; 10 g L-glutamine added to 60 mL Predonema Enema, Day 15 to Day 28, oral 5-ASA agent",improving effect of blood feces was recognized
same,frequency of bowel movements,[4]; 10 g of L-glutamine via the large intestinal route to humans,frequency of bowel movements increases
